Species: Rattus norvegicus
Experiment: Open TG-GATES - Regimen: Daily Repeat
Assay type: toxicity, organism-based, Sprague-Dawley
Set-up: regimen Daily Repeat, gender Male, age 6 weeks
Conditions: in vivo, po, route gavage; for APTT / Bas / Eos / Fbg / Hb / Ht / Lym / MCH / MCHC / MCV / Mono / Neu / PT / Plat / RBC / Ret / WBC: tissue Blood; for KIDNEY_L / KIDNEY_R / KIDNEY_TOTAL: tissue Kidney; for LIVER: tissue Liver; for A/G / ALP / ALT / AST / BUN / CRE / Ca / Cl / DBIL / GLC / IP / K / LDH / Na / PL / RALB / TBIL / TC / TG / TP / gamma-GTP: tissue Plasma
[1] = 0 mg/kg, 72 h, dose level Control, time 3 day
[2] = 0 mg/kg, […], dose level Control, time 7 day
[3] = 0 mg/kg, […], dose level Control, time 14 day
[4] = 0 mg/kg, […], dose level Control, time 28 day
[5] = 40 mg/kg, 72 h, dose level Low, time 3 day
[6] = 40 mg/kg, […], dose level Low, time 7 day
[7] = 40 mg/kg, […], dose level Low, time 14 day
[8] = 40 mg/kg, […], dose level Low, time 28 day

Cc1cccc(C)c1OCC(C)N (centres undefined) [MEXILETINE]
TERMINAL_BW [1]: 240.8 g
APTT [1]: 20.3 s
Bas [1]: 0%
Eos [1]: 0.8%
Fbg [1]: 302.4 mg/dL
Hb [1]: 12.6 g/dL
Ht [1]: 39.4%
Lym [1]: 81.6%
MCH [1]: 19.9 pg
MCHC [1]: 32.1%
MCV [1]: 61.9 fL
Mono [1]: 2.8%
Neu [1]: 13.8%
PT [1]: 15.8 s
Plat [1]: 115 x10_4/uL
RBC [1]: 636.6 x10_4/ul
Ret [1]: 6.3%
WBC [1]: 120.4 x10_2/uL
KIDNEY_L [1]: 1.1 g
KIDNEY_R [1]: 1.1 g
KIDNEY_TOTAL [1]: 2.2 g
LIVER [1]: 11.2 g
A/G [1]: 1.3
ALP [1]: 1769.2 IU/L
ALT [1]: 44.8 IU/L
AST [1]: 72.2 IU/L
BUN [1]: 15.6 mg/dL
CRE [1]: 0.1 mg/dL
Ca [1]: 10.4 mg/dL
Cl [1]: 106 meq/L
DBIL [1]: 0 mg/dL
GLC [1]: 201.2 mg/dL
IP [1]: 7.6 mg/dL
K [1]: 4.4 meq/L
LDH [1]: 178 IU/L
Na [1]: 142 meq/L
PL [1]: 134 mg/dL
RALB [1]: 3 g/dL
TBIL [1]: 0.008 mg/dL
TC [1]: 73.2 mg/dL
TG [1]: 69.6 mg/dL
TP [1]: 5.4 g/dL
gamma-GTP [1]: 2.2 IU/L
TERMINAL_BW [2]: 274.3 g
TERMINAL_BW [3]: 321.8 g
TERMINAL_BW [4]: 408.3 g
APTT [2]: 23.4 s
Bas [2]: 0%
Eos [2]: 1%
Fbg [2]: 300 mg/dL
Hb [2]: 12.9 g/dL
Ht [2]: 39.7%
Lym [2]: 77.8%
MCH [2]: 20.4 pg
MCHC [2]: 32.5%
MCV [2]: 62.4 fL
Mono [2]: 2.8%
Neu [2]: 17.4%
PT [2]: 15.9 s
Plat [2]: 106.5 x10_4/uL
RBC [2]: 637.2 x10_4/ul
Ret [2]: 6%
WBC [2]: 115.8 x10_2/uL
APTT [3]: 22.2 s
Bas [3]: 0%
Eos [3]: 0.8%
Fbg [3]: 310.6 mg/dL
Hb [3]: 12.8 g/dL
Ht [3]: 39.4%
Lym [3]: 80.6%
MCH [3]: 21 pg
MCHC [3]: 32.4%
MCV [3]: 64.8 fL
Mono [3]: 1.8%
Neu [3]: 16.2%
PT [3]: 16.1 s
Plat [3]: 107.7 x10_4/uL
RBC [3]: 608.6 x10_4/ul
Ret [3]: 8.8%
WBC [3]: 96.5 x10_2/uL
APTT [4]: 25.3 s
Bas [4]: 0%
Eos [4]: 1%
Fbg [4]: 307.6 mg/dL
Hb [4]: 14.8 g/dL
Ht [4]: 43.5%
Lym [4]: 83.2%
MCH [4]: 19.2 pg
MCHC [4]: 34.1%
MCV [4]: 56.3 fL
Mono [4]: 1.6%
Neu [4]: 13.8%
PT [4]: 16.1 s
Plat [4]: 91.8 x10_4/uL
RBC [4]: 774.2 x10_4/ul
Ret [4]: 2.9%
WBC [4]: 104.4 x10_2/uL
KIDNEY_L [2]: 1.2 g
KIDNEY_R [2]: 1.2 g
KIDNEY_TOTAL [2]: 2.3 g
KIDNEY_L [3]: 1.3 g
KIDNEY_R [3]: 1.3 g
KIDNEY_TOTAL [3]: 2.5 g
KIDNEY_L [4]: 1.4 g
KIDNEY_R [4]: 1.5 g
KIDNEY_TOTAL [4]: 2.9 g
LIVER [2]: 13.3 g
LIVER [3]: 14.2 g
LIVER [4]: 16.9 g
A/G [2]: 1.1
ALP [2]: 1475.8 IU/L
ALT [2]: 42.2 IU/L
AST [2]: 65 IU/L
BUN [2]: 20.4 mg/dL
CRE [2]: 0.2 mg/dL
Ca [2]: 10.7 mg/dL
Cl [2]: 105 meq/L
DBIL [2]: 0 mg/dL
GLC [2]: 200.4 mg/dL
IP [2]: 7.5 mg/dL
K [2]: 4.2 meq/L
LDH [2]: 152.8 IU/L
Na [2]: 141.4 meq/L
PL [2]: 152.6 mg/dL
RALB [2]: 3 g/dL
TBIL [2]: 0.002 mg/dL
TC [2]: 80.2 mg/dL
TG [2]: 113.4 mg/dL
TP [2]: 5.6 g/dL
gamma-GTP [2]: 2 IU/L
A/G [3]: 1.1
ALP [3]: 1564.4 IU/L
ALT [3]: 45.6 IU/L
AST [3]: 68.8 IU/L
BUN [3]: 19 mg/dL
CRE [3]: 0.2 mg/dL
Ca [3]: 10.6 mg/dL
Cl [3]: 104.6 meq/L
DBIL [3]: 0 mg/dL
GLC [3]: 211.6 mg/dL
IP [3]: 7.1 mg/dL
K [3]: 4.2 meq/L
LDH [3]: 164.6 IU/L
Na [3]: 140.6 meq/L
PL [3]: 147.8 mg/dL
RALB [3]: 3 g/dL
TBIL [3]: 0.004 mg/dL
TC [3]: 70.2 mg/dL
TG [3]: 143 mg/dL
TP [3]: 5.8 g/dL
gamma-GTP [3]: 2.2 IU/L
A/G [4]: 0.9
ALP [4]: 1046.8 IU/L
ALT [4]: 37.2 IU/L
AST [4]: 61.8 IU/L
BUN [4]: 19.2 mg/dL
CRE [4]: 0.2 mg/dL
Ca [4]: 10.5 mg/dL
Cl [4]: 104.2 meq/L
DBIL [4]: 0 mg/dL
GLC [4]: 194.8 mg/dL
IP [4]: 6.6 mg/dL
K [4]: 3.8 meq/L
LDH [4]: 132.8 IU/L
Na [4]: 143.2 meq/L
PL [4]: 135 mg/dL
RALB [4]: 3 g/dL
TBIL [4]: 0.01 mg/dL
TC [4]: 67.8 mg/dL
TG [4]: 133.6 mg/dL
TP [4]: 6.2 g/dL
gamma-GTP [4]: 2 IU/L
TERMINAL_BW [5]: 247.9 g
APTT [5]: 21.7 s
Bas [5]: 0%
Eos [5]: 0.8%
Fbg [5]: 327.2 mg/dL
Hb [5]: 13 g/dL
Ht [5]: 39.6%
Lym [5]: 79.8%
MCH [5]: 20.3 pg
MCHC [5]: 32.7%
MCV [5]: 62.1 fL
Mono [5]: 3.2%
Neu [5]: 15.6%
PT [5]: 15.2 s
Plat [5]: 118.3 x10_4/uL
RBC [5]: 638.4 x10_4/ul
Ret [5]: 6.1%
WBC [5]: 92 x10_2/uL
KIDNEY_L [5]: 1.1 g
KIDNEY_R [5]: 1.1 g
KIDNEY_TOTAL [5]: 2.1 g
LIVER [5]: 12.1 g
A/G [5]: 1.3
ALP [5]: 1808.2 IU/L
ALT [5]: 47.4 IU/L
AST [5]: 72.6 IU/L
BUN [5]: 16.2 mg/dL
CRE [5]: 0.1 mg/dL
Ca [5]: 10.5 mg/dL
Cl [5]: 105.2 meq/L
DBIL [5]: 0 mg/dL
GLC [5]: 192.4 mg/dL
IP [5]: 7.7 mg/dL
K [5]: 4.4 meq/L
LDH [5]: 147.4 IU/L
Na [5]: 141 meq/L
PL [5]: 151 mg/dL
RALB [5]: 3.2 g/dL
TBIL [5]: 0.006 mg/dL
TC [5]: 77.6 mg/dL
TG [5]: 133.8 mg/dL
TP [5]: 5.6 g/dL
gamma-GTP [5]: 1.6 IU/L
TERMINAL_BW [6]: 275.8 g
TERMINAL_BW [7]: 338.1 g
TERMINAL_BW [8]: 397.8 g
APTT [6]: 22.5 s
Bas [6]: 0%
Eos [6]: 1%
Fbg [6]: 317.4 mg/dL
Hb [6]: 13 g/dL
Ht [6]: 39.9%
Lym [6]: 81%
MCH [6]: 20.4 pg
MCHC [6]: 32.5%
MCV [6]: 62.8 fL
Mono [6]: 2.4%
Neu [6]: 15%
PT [6]: 16 s
Plat [6]: 107.4 x10_4/uL
RBC [6]: 634.4 x10_4/ul
Ret [6]: 6.2%
WBC [6]: 105.8 x10_2/uL
APTT [7]: 20.9 s
Bas [7]: 0%
Eos [7]: 0.4%
Fbg [7]: 302.8 mg/dL
Hb [7]: 13.1 g/dL
Ht [7]: 40.8%
Lym [7]: 80.4%
MCH [7]: 20.6 pg
MCHC [7]: 32.1%
MCV [7]: 64.2 fL
Mono [7]: 2.2%
Neu [7]: 16%
PT [7]: 15.9 s
Plat [7]: 119 x10_4/uL
RBC [7]: 634.2 x10_4/ul
Ret [7]: 7.8%
WBC [7]: 92.2 x10_2/uL
APTT [8]: 22.8 s
Bas [8]: 0%
Eos [8]: 1%
Fbg [8]: 323.4 mg/dL
Hb [8]: 14.9 g/dL
Ht [8]: 43.2%
Lym [8]: 79.8%
MCH [8]: 19.4 pg
MCHC [8]: 34.5%
MCV [8]: 56.3 fL
Mono [8]: 2.4%
Neu [8]: 15.6%
PT [8]: 15.9 s
Plat [8]: 101.8 x10_4/uL
RBC [8]: 766.6 x10_4/ul
Ret [8]: 2.8%
WBC [8]: 104.7 x10_2/uL
KIDNEY_L [6]: 1.1 g
KIDNEY_R [6]: 1.1 g
KIDNEY_TOTAL [6]: 2.2 g
KIDNEY_L [7]: 1.3 g
KIDNEY_R [7]: 1.3 g
KIDNEY_TOTAL [7]: 2.6 g
KIDNEY_L [8]: 1.4 g
KIDNEY_R [8]: 1.4 g
KIDNEY_TOTAL [8]: 2.9 g
LIVER [6]: 12.7 g
LIVER [7]: 15.2 g
LIVER [8]: 17.1 g
A/G [6]: 1.2
ALP [6]: 1628.6 IU/L
ALT [6]: 47.8 IU/L
AST [6]: 72.4 IU/L
BUN [6]: 19.6 mg/dL
CRE [6]: 0.2 mg/dL
Ca [6]: 10.6 mg/dL
Cl [6]: 105.6 meq/L
DBIL [6]: 0 mg/dL
GLC [6]: 190 mg/dL
IP [6]: 7.2 mg/dL
K [6]: 4 meq/L
LDH [6]: 162.8 IU/L
Na [6]: 143.2 meq/L
PL [6]: 145.2 mg/dL
RALB [6]: 3 g/dL
TBIL [6]: 0.002 mg/dL
TC [6]: 82 mg/dL
TG [6]: 108.8 mg/dL
TP [6]: 5.6 g/dL
gamma-GTP [6]: 1.8 IU/L
A/G [7]: 1.1
ALP [7]: 1520 IU/L
ALT [7]: 43.4 IU/L
AST [7]: 69.6 IU/L
BUN [7]: 18.6 mg/dL
CRE [7]: 0.2 mg/dL
Ca [7]: 10.5 mg/dL
Cl [7]: 106.8 meq/L
DBIL [7]: 0 mg/dL
GLC [7]: 196.8 mg/dL
IP [7]: 6.8 mg/dL
K [7]: 4.2 meq/L
LDH [7]: 154.2 IU/L
Na [7]: 141.4 meq/L
PL [7]: 152.8 mg/dL
RALB [7]: 3 g/dL
TBIL [7]: 0.002 mg/dL
TC [7]: 80.4 mg/dL
TG [7]: 136.8 mg/dL
TP [7]: 5.9 g/dL
gamma-GTP [7]: 2.4 IU/L
A/G [8]: 1
ALP [8]: 1106 IU/L
ALT [8]: 37.8 IU/L
AST [8]: 62.4 IU/L
BUN [8]: 17.6 mg/dL
CRE [8]: 0.2 mg/dL
Ca [8]: 10.5 mg/dL
Cl [8]: 106 meq/L
DBIL [8]: 0 mg/dL
GLC [8]: 197.2 mg/dL
IP [8]: 6.5 mg/dL
K [8]: 3.8 meq/L
LDH [8]: 154.6 IU/L
Na [8]: 142.8 meq/L
PL [8]: 146.4 mg/dL
RALB [8]: 3.1 g/dL
TBIL [8]: 0.014 mg/dL
TC [8]: 67.8 mg/dL
TG [8]: 174.2 mg/dL
TP [8]: 6.1 g/dL
gamma-GTP [8]: 2.4 IU/L
